Laboratory results from patent publication US5641760A, “Method of treating candida infection” (Pence, Inc., priority 1994, dated 1997).

Legend:
[1] = tested on: Candida albicans strain #40 fimbriae (enriched fimbriae EF, 66 kDa fimbrial subunit/adhesin protein); test: Inhibition of fimbriae binding to immobilized glycosphingolipids by free glycosphingolipids
Method: The binding specificity to GSLs was assessed in experiments in which free GSLs were tested for their abilities to inhibit binding of C. albicans fimbriae to immobilized GSLs. These experiments were carried out using the microtiter plate assay described above, and as further detailed in Example 5B. C. albicans fimbriae (50 μg/ml) were preincubated with varying concentrations of asialo-GM1 or CTH at 37° C. for an hour prior to addition into the precoated microtiter wells. In this assay, GSLs were suspended in phosphate buffered saline (PBS) at a sufficiently low concentration to prevent micellar formation. C. albicans fimbriae binding to immobilized asialo-GM1 was reduced by 78% (Diamonds, FIG. 11B) by asialo-GM1.
Polystyrene microtiter plate wells (Nunc) were coated with asialo-GM1 or ceramide trihexoside (CTH) (Sigma Chem. Co., St. Louis, Mo.). Aliquots of the GSLs (5 μg/ml resuspended in methanol) were added into the wells (100 μl/well) and the plates were incubated overnight at 4° C. The wells were washed three times with 250 μl/well of 10 mM phosphate buffered saline pH 7.4 containing 150 mM NaCl (PBS) supplemented with 0.05% (w/v) bovine serum albumin (Buffer A). Excess binding sites were blocked by the addition of 200 μl/well of 5% (w/v) BSA in PBS pH 7.4 and incubation at 37° C. for 1 hour. Wells were washed three times with 250 μl/well of buffer A. Enriched fimbriae ranging from 0 to 40 μg protein/ml in Buffer A were added to the wells (100 μl/well) and incubated for 2 hour at 37° C. Aliquots of mouse anti-EF monoclonal antibodies, Fm16 (diluted 1:500), was added to each well (100 μl) and incubated at 37° C. for 2 hours. Wells were washed 5 times with 250 μl/well of Buffer A. Antibody binding to EF was assessed by the addition of a goat anti-mouse heavy and light chain [IgG(H+L)] immunoglobulin G-peroxidase conjugates (Jackson Laboratories) to each well (100 μl/well) and incubated for 1 hour at 37° C. […] The reaction was stopped by an addition of 125 μl/well of 4 mM sodium azide and the absorbance at 405 nm was recorded. […]

[2] = tested on: Candida albicans fimbriae (binding to human BECs); test: Inhibition of fimbriae binding to human buccal epithelial cells (BECs); assay type: cell-based; conditions: fimbriae 50 μg preincubated with competitor 1 h at 37° C., 2.0×10^5 BECs
Method: The percent inhibition is the inhibition of binding in the presence of the competing antigens with respect to binding observed in the absence of any competitors.
The fimbrial adherence assay was performed using a Manifold filtration apparatus equipped with individual vacuum stopcocks (Model FH 225V, Hoefer Scientific Instruments). Polycarbonate filters, 12 μm pore size (Nucleopore Costar Corp.), were pre-incubated overnight at 4° C. with 50 ml of PBS pH 7.2, containing 0.45% (v/v) Tween 20. The pretreated filters were placed into each chamber and washed with 2.5 ml of PBS. 1 ml containing 2.0×10^5 BECs in PBS was added to each chamber. Enriched fimbriae (100 μl/chamber, ranging from 0 to 80 μg fimbriae protein/ml) in PBS containing 0.05% (v/v) Tween-20 was added to each chamber and incubated with the BECs for 1.5 hours at room temperature. Unbound fimbriae were removed with washes of 2.5 ml of PBS. Mouse anti-C. albicans fimbriae monoclonal antibody (ascites fluid diluted 1:3000 with PBS) was added to the BECs (1.2 ml/chamber) and incubated for 1.5 hour at room temperature. BECs were washed five times with 2.5 ml of PBS. Goat anti-mouse IgG(H+L)-peroxidase conjugates (Jackson Laboratories) diluted 1:5000 with PBS was added (1.0 ml/chamber) and incubated for another hour at room temperature. The cells were then washed seven times with 2.5 ml/chamber of PBS. The polycarbonate filters containing BECs were removed from the filtration manifold and placed into glass scintillation vials. The horseradish peroxidase substrate solution (ABTS) was added to each vial (1 ml/vial) and incubated for 30 min at room temperature on a shaker at 100 rpm. The reaction was stopped by the addition of 4 mM sodium azide (200 μl/vial). The substrate solution was pipetted into Eppendorf tubes and centrifuged at 5,000 g for 3 minutes. Aliquots of the supernatants were pipetted into microtiter wells (200 μl/well) and the resulting absorbance at 405 nm was recorded with a Titertek Multiskan Plus microplate recorder. […]

ceramide trihexoside [CTH, ceramide trihexoside [aGal(1-4)βGal(1-4)βGlc(1-1)Cer]]
Competition of fimbriae binding ([1]; fimbriae 50 μg/ml preincubated with competitor (0 to 15 μg/ml)): No competition | Inhibition of C. albicans fimbriae binding to BECs [2]: failed to inhibit

gangliotetraosylceramide: βGal(1-3)βGalNAc(1-4)βGal(1-4)βGlc(1-1)Cer [asialo-GM1]
Reduction of fimbriae binding to immobilized asialo-GM1 ([1]; fimbriae 50 μg/ml preincubated with competitor (0 to 15 μg/ml) 1 h at 37° C.): 78% | Concentration required for half-maximal inhibition ([1]; fimbriae 50 μg/ml, immobilized asialo-GM1): 1.44 µg/mL | Inhibition of C. albicans fimbriae binding to BECs ([2]; competitor concentration not stated): 80%
